What was measured:
Assay in all cases: relative viability (nuclei count vs DMSO), 5 days (fraction); higher = more cells survive
LCLC-97TM1 = system: LCLC-97TM1
Outline: (§1)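 Relative viability was taken as the ratio of nuclei in treated wells to nuclei in vehicle wells. Lung cancer cell lines in 1536-well plates received compounds by pin tool one day after seeding, either one drug alone or a fixed anchor-drug dose plus five library-drug doses (not always all listed) in √10 steps. Nuclei were counted on 4× images after 5 days of treatment, and values are medians of duplicate plates.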

HCC-15 = system: HCC-15
Outline: as §1

NCI-H1734 = system: NCI-H1734
Outline: as §1

ChaGo-K-1 = system: ChaGo-K-1
Outline: as §1

NCI-H2009 = system: NCI-H2009
Outline: as §1

NCI-H441 = system: NCI-H441
Outline: as §1

NCI-H460 = system: NCI-H460
Outline: as §1

COR-L23 = system: COR-L23
Outline: as §1

RERF-LC-KJ = system: RERF-LC-KJ
Outline: as §1

LOU-NH91 = system: LOU-NH91
Outline: as §1

NCI-H2023 = system: NCI-H2023
Outline: as §1

NCI-H2126 = system: NCI-H2126
Outline: as §1

201T = system: 201T
Outline: as §1

HCC-44 = system: HCC-44
Outline: as §1

NCI-H1993 = system: NCI-H1993
Outline: as §1

HCC-78 = system: HCC-78
Outline: as §1

A-427 = system: A-427
Outline: as §1

SW 1573 = system: SW 1573
Outline: as §1

HCC-366 = system: HCC-366
Outline: as §1

HARA = system: HARA
Outline: as §1

NCI-H650 = system: NCI-H650
Outline: as §1

NCI-H1650 = system: NCI-H1650
Outline: as §1

LCLC-103H = system: LCLC-103H
Outline: as §1

Cc1cnc(-c2cnc(NCCNc3ccc(C#N)cn3)nc2-c2ccc(Cl)cc2Cl)[nH]1 + O=C(CCCCCCC(=O)Nc1ccccc1)NO [Vorinostat] (partner 1 µM)
relative viability (LCLC-97TM1; first compound 0.08 µM): 0.712
relative viability (LCLC-97TM1; first compound 0.253 µM): 0.462
relative viability (LCLC-97TM1; first compound 0.8 µM): 0.515
relative viability (LCLC-97TM1; first compound 2.53 µM): 0.515
relative viability (HCC-15; first compound 0.08 µM): 0.832
relative viability (HCC-15; first compound 0.253 µM): 0.818
relative viability (HCC-15; first compound 0.8 µM): 0.817
relative viability (HCC-15; first compound 2.53 µM): 0.829
relative viability (NCI-H1734; first compound 0.08 µM): 0.88
relative viability (NCI-H1734; first compound 0.253 µM): 0.693
relative viability (NCI-H1734; first compound 0.8 µM): 0.745
relative viability (NCI-H1734; first compound 2.53 µM): 0.661
relative viability (ChaGo-K-1; first compound 0.08 µM): 0.742
relative viability (ChaGo-K-1; first compound 0.253 µM): 0.649
relative viability (ChaGo-K-1; first compound 0.8 µM): 0.604
relative viability (ChaGo-K-1; first compound 2.53 µM): 0.664
relative viability (NCI-H2009; first compound 0.08 µM): 0.738
relative viability (NCI-H2009; first compound 0.253 µM): 0.676
relative viability (NCI-H2009; first compound 0.8 µM): 0.659
relative viability (NCI-H2009; first compound 2.53 µM): 0.725
relative viability (NCI-H441; first compound 0.08 µM): 0.823
relative viability (NCI-H441; first compound 0.8 µM): 0.737
relative viability (NCI-H441; first compound 2.53 µM): 0.738
relative viability (NCI-H460; first compound 0.08 µM): 0.71
relative viability (NCI-H460; first compound 0.253 µM): 0.618
relative viability (NCI-H460; first compound 0.8 µM): 0.625
relative viability (NCI-H460; first compound 2.53 µM): 0.58
relative viability (COR-L23; first compound 0.08 µM): 0.556
relative viability (COR-L23; first compound 0.253 µM): 0.42
relative viability (COR-L23; first compound 0.8 µM): 0.508
relative viability (COR-L23; first compound 2.53 µM): 0.505
relative viability (RERF-LC-KJ; first compound 0.08 µM): 0.815
relative viability (RERF-LC-KJ; first compound 0.253 µM): 0.565
relative viability (RERF-LC-KJ; first compound 0.8 µM): 0.58
relative viability (RERF-LC-KJ; first compound 2.53 µM): 0.677
relative viability (LOU-NH91; first compound 0.08 µM): 0.972
relative viability (LOU-NH91; first compound 0.253 µM): 0.878
relative viability (LOU-NH91; first compound 0.8 µM): 0.942
relative viability (LOU-NH91; first compound 2.53 µM): 0.978
relative viability (NCI-H2023; first compound 0.08 µM): 0.897
relative viability (NCI-H2023; first compound 0.253 µM): 0.473
relative viability (NCI-H2023; first compound 0.8 µM): 0.465
relative viability (NCI-H2023; first compound 2.53 µM): 0.731
relative viability (NCI-H2126; first compound 0.08 µM): 0.775
relative viability (NCI-H2126; first compound 0.253 µM): 0.695
relative viability (NCI-H2126; first compound 0.8 µM): 0.703
relative viability (NCI-H2126; first compound 2.53 µM): 0.819
relative viability (201T; first compound 0.08 µM): 1.01
relative viability (201T; first compound 0.8 µM): 0.977
relative viability (201T; first compound 2.53 µM): 0.912
relative viability (HCC-44; first compound 0.08 µM): 1.05
relative viability (HCC-44; first compound 0.253 µM): 1.16
relative viability (HCC-44; first compound 0.8 µM): 1.03
relative viability (HCC-44; first compound 2.53 µM): 1.24
relative viability (NCI-H1993; first compound 0.08 µM): 1.26
relative viability (NCI-H1993; first compound 0.253 µM): 0.761
relative viability (NCI-H1993; first compound 0.8 µM): 0.727
relative viability (NCI-H1993; first compound 2.53 µM): 0.76
relative viability (HCC-78; first compound 0.08 µM): 0.553
relative viability (HCC-78; first compound 0.253 µM): 0.438
relative viability (HCC-78; first compound 0.8 µM): 0.39
relative viability (HCC-78; first compound 2.53 µM): 0.427
relative viability (A-427; first compound 0.08 µM): 0.868
relative viability (A-427; first compound 0.253 µM): 0.826
relative viability (A-427; first compound 0.8 µM): 0.826
relative viability (A-427; first compound 2.53 µM): 0.854
relative viability (SW 1573; first compound 0.08 µM): 0.849
relative viability (SW 1573; first compound 0.253 µM): 0.815
relative viability (SW 1573; first compound 0.8 µM): 0.463
relative viability (SW 1573; first compound 2.53 µM): 0.224
relative viability (HCC-366; first compound 0.08 µM): 0.332
relative viability (HCC-366; first compound 0.253 µM): 0.24
relative viability (HCC-366; first compound 0.8 µM): 0.31
relative viability (HCC-366; first compound 2.53 µM): 0.369
relative viability (HARA; first compound 0.08 µM): 0.659
relative viability (HARA; first compound 0.253 µM): 0.612
relative viability (HARA; first compound 0.8 µM): 0.487
relative viability (HARA; first compound 2.53 µM): 0.492
relative viability (NCI-H650; first compound 0.08 µM): 0.544
relative viability (NCI-H650; first compound 0.253 µM): 0.423
relative viability (NCI-H650; first compound 0.8 µM): 0.4
relative viability (NCI-H650; first compound 2.53 µM): 0.443
relative viability (NCI-H1650; first compound 0.08 µM): 0.564
relative viability (NCI-H1650; first compound 0.253 µM): 0.508
relative viability (NCI-H1650; first compound 0.8 µM): 0.546
relative viability (NCI-H1650; first compound 2.53 µM): 0.661
relative viability (LCLC-103H; first compound 0.08 µM): 0.728
relative viability (LCLC-103H; first compound 0.253 µM): 0.541
relative viability (LCLC-103H; first compound 0.8 µM): 0.689
relative viability (LCLC-103H; first compound 2.53 µM): 0.698

Source: the supplement of paper PMC10307832
